Measurements published in paper PMC9837035 (Nature Communications, 2023).
pIC50: −log10 of the molar value. “And” between values parts separate entries of the source, which are not always exact repeats. Equal values may be shown once.

Columns and labels:
[1] = system: BGLT3-knockdown HUDEP-2 cells; test: RT-qPCR of BGLT3, β- and γ-globin in BGLT3-knockdown HUDEP-2 cells; type: cell-based, human; conditions: for induction of γ-globin in BGLT3-knockdown cell lines: HUDEP-2; for BGLT3 expression / β-globin expression / γ-globin expression: shctrl DMSO = 1, 3 replicates
Protocol: (§1) Total cellular RNA was prepared using the Tissue Total RNA Mini Kit (FAVORGEN), and cDNA was synthesized using ReverTra Ace Master Mix (TOYOBO). Expression of target genes was analyzed using THUNDERBIRD SYBR qPCR Mix (TOYOBO) on a CFX Connect Real Time System (Bio-Rad). The qPCR data were acquired on CFX Maestro (Bio-Rad). Primers are listed in Supplementary Table 10. GAPDH was used as a reference. Primers were purchased from INTEGRATED DNA TECHNOLOGIES or FASMAC.
Retroviral infection was used as previously described to establish cell lines stably expressing BGLT3 and transfected with the pCX4-pur vector, as well as knockdown cell lines transfected with the pSUPER vector[58]. Briefly, retroviruses were produced by transfecting PLAT-E cells with pCX4-pur-BGLT3 or pSUPER-ctrl, pSUPER-BGLT3, or pSUPER-G9a using 5 μg/mL polyethylenimine MAX (PEI MAX, Polysciences). Two days after transfection, the culture supernatant was collected and filtered through a 0.45-μm filter (Millipore) and used for infection with 8 μg/mL polybrene (Sigma). Forty-eight hours after infection, the infected cells were selected with 0.2 μg/mL puromycin (InvivoGen). The clonal puromycin-resistant cells were established via limiting dilution. The desired clones were confirmed by western blotting or qPCR.

[2] = system: BCL11A and ZBTB7A in HUDEP-2 cells; test: RT-qPCR of BCL11A and ZBTB7A in HUDEP-2 cells; type: cell-based, human; conditions: for expression of BCL11A and ZBTB7A: HUDEP-2
Protocol: as §1

[3] = system: β- and γ-globin genes in HUDEP-2 cells; test: RT-qPCR of β- and γ-globin in HUDEP-2 cells; type: cell-based, human
Procedure, shortened: (§2)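 Total RNA reverse-transcribed to cDNA, then target transcripts quantified by SYBR Green real-time qPCR. Expression normalized to GAPDH as reference gene.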

[4] = system: BGLT3 RNA in HUDEP-2 cells; test: RT-qPCR of BGLT3 in HUDEP-2 cells; type: cell-based, human
Procedure, shortened: as §2

[5] = biological target: DNMT3b (Homo sapiens, UniProt Q9UBC3); test: Radioisotope-based methyltransferase assay (selectivity); conditions: 1 μM SAM
[6] = biological target: T1, SETD2 (Homo sapiens, UniProt Q9BYW2); test: as above; type: biochemical
T1 construct: purchased Reaction Biology

[7] = biological target: T2, G9a (Homo sapiens, UniProt Q96KQ7); test: In vitro G9a methyltransferase assay (AlphaLISA-based); type: biochemical; design: purchased BPS Bioscience
T2 sequence (Q96KQ7 1-1210): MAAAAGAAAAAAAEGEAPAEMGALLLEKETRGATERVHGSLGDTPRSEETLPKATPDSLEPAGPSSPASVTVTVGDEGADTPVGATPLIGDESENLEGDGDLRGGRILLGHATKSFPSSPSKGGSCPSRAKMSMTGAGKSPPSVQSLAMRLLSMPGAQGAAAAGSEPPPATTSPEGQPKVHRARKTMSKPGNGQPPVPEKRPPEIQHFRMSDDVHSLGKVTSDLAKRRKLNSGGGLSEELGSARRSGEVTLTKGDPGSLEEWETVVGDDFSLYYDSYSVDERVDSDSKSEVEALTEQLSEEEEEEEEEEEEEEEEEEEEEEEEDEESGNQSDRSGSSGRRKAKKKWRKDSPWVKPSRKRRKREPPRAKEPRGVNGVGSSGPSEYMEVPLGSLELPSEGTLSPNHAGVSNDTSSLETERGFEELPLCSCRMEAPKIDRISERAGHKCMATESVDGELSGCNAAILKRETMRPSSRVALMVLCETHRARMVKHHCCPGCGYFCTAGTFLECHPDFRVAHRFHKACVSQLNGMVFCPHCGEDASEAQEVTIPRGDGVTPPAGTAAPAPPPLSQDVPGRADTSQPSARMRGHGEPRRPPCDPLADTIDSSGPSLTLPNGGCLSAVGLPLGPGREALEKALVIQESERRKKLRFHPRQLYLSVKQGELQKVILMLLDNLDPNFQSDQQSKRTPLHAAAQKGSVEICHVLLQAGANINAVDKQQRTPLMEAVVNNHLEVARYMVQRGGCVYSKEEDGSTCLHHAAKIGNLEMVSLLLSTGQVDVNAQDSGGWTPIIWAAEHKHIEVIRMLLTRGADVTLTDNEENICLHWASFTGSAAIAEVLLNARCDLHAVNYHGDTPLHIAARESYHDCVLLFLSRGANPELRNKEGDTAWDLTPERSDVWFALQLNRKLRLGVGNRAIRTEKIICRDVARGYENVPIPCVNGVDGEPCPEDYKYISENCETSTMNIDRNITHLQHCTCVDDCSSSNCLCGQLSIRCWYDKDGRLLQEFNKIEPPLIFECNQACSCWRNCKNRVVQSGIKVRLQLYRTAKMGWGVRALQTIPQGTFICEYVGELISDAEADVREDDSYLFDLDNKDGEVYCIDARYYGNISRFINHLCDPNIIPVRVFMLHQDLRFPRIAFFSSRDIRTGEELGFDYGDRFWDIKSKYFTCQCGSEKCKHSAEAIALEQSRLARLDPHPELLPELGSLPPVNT
Protocol: An amplified luminescence proximity homogeneous assay (ALPHA) was performed with a modified version of a previously described method. Recombinant G9a proteins (BPS Bioscience) were incubated with 15 μM S-adenosyl-methionine (Sigma) and 50 nM biotinylated histone H3 (1-21; AnaSpec) in the assay buffer (50 mM Tris-HCl (pH 9.0), 50 mM NaCl, 0.01% Tween-20, and 1 mM DTT). After incubation at room temperature for 1 h, AlphaLISA anti-H3K9me2 acceptor beads (final concentration 10 μg/mL, PerkinElmer, AL117C) and AlphaScreen streptavidin donor beads (final concentration 10 μg/mL, PerkinElmer, 6760002B) were added and incubated for an additional 1 h prior to detection of the alpha signal with an EnSpire Alpha plate reader (PerkinElmer). ALPHA profile was analyzed using Origin (OriginLab).

[8] = shBGLT3#1 HUDEP-2 cells treated with hydroxyurea
[9] = shBGLT3#2 HUDEP-2 cells treated with hydroxyurea
[10] = shBGLT3#3 HUDEP-2 cells treated with hydroxyurea
[11] = shctrl HUDEP-2 cells treated with hydroxyurea
[12] = 50 μM, relative to DMSO = 1, replicate values
[13] = 100 μM, relative to DMSO = 1, replicate values
[14] = 200 μM, relative to DMSO = 1, replicate values
[15] = Parental cells, relative to Parental DMSO = 1, replicate values
[16] = G9a activity, 0.016 μM, single experiment
[17] = G9a activity, 0.08 μM, single experiment
[18] = G9a activity, 2 μM, single experiment
[19] = G9a activity, 10 μM, single experiment
[20] = G9a activity, 50 μM, single experiment
[21] = G9a activity, single experiment
[22] = G9a activity, 0.4 μM, single experiment
[23] = 0.01 μM, relative to DMSO = 1, replicate values
[24] = single agents or combination, relative to DMSO = 1, replicate values

T1 sequence (Q9BYW2 whole entry): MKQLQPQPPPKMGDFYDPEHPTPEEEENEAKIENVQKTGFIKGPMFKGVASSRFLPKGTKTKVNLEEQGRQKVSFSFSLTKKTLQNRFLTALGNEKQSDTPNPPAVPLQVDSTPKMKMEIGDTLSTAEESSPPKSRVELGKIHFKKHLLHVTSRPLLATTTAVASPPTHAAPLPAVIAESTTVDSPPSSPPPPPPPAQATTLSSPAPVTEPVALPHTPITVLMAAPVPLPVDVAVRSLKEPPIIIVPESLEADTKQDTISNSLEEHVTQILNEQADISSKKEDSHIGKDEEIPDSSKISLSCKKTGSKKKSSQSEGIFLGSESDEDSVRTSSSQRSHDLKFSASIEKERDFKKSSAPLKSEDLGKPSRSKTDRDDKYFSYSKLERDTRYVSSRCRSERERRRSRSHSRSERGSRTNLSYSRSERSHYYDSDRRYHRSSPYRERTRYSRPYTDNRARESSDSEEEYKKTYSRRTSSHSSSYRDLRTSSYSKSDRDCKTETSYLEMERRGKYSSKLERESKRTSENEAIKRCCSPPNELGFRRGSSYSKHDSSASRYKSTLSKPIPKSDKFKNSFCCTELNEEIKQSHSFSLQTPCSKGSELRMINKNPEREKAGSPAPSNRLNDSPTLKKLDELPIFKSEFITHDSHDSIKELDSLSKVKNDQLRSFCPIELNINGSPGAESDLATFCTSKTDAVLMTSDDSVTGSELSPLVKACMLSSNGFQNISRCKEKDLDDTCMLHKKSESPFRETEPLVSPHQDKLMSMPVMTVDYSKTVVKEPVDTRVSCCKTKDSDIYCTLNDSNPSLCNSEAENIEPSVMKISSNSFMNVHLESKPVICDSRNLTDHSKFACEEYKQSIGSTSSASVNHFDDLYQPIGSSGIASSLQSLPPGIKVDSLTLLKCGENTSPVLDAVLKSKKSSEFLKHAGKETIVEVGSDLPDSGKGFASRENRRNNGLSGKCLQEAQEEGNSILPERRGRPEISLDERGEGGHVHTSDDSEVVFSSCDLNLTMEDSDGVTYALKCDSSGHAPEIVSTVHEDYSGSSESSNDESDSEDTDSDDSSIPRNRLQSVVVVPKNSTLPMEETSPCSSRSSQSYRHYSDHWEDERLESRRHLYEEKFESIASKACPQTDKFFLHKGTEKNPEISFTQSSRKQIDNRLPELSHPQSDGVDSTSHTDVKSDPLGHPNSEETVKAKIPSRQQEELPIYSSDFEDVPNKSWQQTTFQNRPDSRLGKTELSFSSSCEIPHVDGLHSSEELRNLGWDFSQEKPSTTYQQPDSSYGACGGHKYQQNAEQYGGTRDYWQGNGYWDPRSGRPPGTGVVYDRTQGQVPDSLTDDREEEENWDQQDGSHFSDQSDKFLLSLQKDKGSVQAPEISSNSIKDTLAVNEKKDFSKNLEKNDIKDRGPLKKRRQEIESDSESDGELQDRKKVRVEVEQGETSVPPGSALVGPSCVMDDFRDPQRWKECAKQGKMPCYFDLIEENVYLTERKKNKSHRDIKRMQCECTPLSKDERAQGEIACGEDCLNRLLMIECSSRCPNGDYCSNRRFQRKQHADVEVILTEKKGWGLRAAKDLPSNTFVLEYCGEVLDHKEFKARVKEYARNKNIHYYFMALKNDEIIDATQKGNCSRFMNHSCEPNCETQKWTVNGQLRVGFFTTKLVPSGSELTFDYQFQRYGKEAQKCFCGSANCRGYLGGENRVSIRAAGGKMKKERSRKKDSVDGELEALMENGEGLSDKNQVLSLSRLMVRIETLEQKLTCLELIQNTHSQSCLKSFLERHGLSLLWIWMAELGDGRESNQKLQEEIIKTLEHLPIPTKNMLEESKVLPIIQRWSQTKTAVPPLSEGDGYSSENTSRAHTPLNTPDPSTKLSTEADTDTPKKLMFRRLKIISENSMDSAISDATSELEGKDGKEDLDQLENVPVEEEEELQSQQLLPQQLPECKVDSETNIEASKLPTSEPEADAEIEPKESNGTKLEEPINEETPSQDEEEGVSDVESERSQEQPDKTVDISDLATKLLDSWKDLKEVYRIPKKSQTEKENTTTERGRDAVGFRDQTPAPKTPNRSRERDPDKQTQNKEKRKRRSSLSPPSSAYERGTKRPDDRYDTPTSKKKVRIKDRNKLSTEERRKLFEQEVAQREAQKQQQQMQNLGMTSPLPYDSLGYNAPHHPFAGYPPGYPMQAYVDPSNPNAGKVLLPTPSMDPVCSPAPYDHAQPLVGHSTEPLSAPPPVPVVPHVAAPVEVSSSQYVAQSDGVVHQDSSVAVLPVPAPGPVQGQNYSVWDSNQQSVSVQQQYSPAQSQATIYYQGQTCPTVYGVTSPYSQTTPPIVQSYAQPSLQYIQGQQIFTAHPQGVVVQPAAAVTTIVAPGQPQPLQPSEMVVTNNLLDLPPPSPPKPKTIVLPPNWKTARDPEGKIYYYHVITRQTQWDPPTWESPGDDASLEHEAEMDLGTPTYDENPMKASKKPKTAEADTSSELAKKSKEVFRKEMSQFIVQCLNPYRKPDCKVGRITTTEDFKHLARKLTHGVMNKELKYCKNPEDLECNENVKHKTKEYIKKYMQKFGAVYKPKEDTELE

NC(=O)NO [Hydroxyurea, hydroxyurea]
induction of γ-globin in BGLT3-knockdown cell lines [1]: significantly suppressed by BGLT3 knockdown | BGLT3 expression [1, 8]: 0.1509 and 0.1371 and 0.1512 | β-globin expression [1, 8]: 1.466 and 1.446 and 1.721 | γ-globin expression [1, 8]: 0.1913 and 0.1897 and 0.2071 | BGLT3 expression [1, 9]: 0.4826 and 0.5314 and 0.5646 | β-globin expression [1, 9]: 1.233 and 1.155 and 1.519 | γ-globin expression [1, 9]: 0.3698 and 0.274 and 0.2235 | BGLT3 expression [1, 10]: 0.2947 and 0.3306 and 0.3028 | β-globin expression [1, 10]: 1.946 and 1.495 and 2.515 | γ-globin expression [1, 10]: 0.4324 and 0.5055 and 0.5513 | BGLT3 expression [1, 11]: 2.21 and 1.619 and 1.809 | β-globin expression [1, 11]: 1.158 and 0.7746 and 0.9701 | γ-globin expression [1, 11]: 2.343 and 1.97 and 1.753 | BCL11A expression in HUDEP-2 cells treated with hydroxyurea [2, 12]: 1.149 and 0.8339 and 1.127 | ZBTB7A expression in HUDEP-2 cells treated with hydroxyurea [2, 12]: 1.5773 and 1.182 and 1.627 | BCL11A expression in HUDEP-2 cells treated with hydroxyurea [2, 13]: 1.406 and 0.8316 and 1.105 | ZBTB7A expression in HUDEP-2 cells treated with hydroxyurea [2, 13]: 3.378 and 1.925 and 2.126 | BCL11A expression in HUDEP-2 cells treated with hydroxyurea [2, 14]: 0.9537 and 0.8461 and 1.024 | ZBTB7A expression in HUDEP-2 cells treated with hydroxyurea [2, 14]: 5.802 and 2.404 and 2.049 | expression of BCL11A and ZBTB7A [2]: did not significantly affect | β-globin in hydroxyurea-treated HUDEP-2 cells [3, 15]: 1.499 and 1.443 and 1.4392 | γ-globin in hydroxyurea-treated HUDEP-2 cells [3, 15]: 3.312 and 3.051 and 3.256 | BGLT3 expression in HUDEP-2 cells treated with hydroxyurea [4, 12]: 1.625 and 1.206 and 1.616 | BGLT3 expression in HUDEP-2 cells treated with hydroxyurea [4, 13]: 1.87 and 1.919 and 2.091 | BGLT3 expression in HUDEP-2 cells treated with hydroxyurea [4, 14]: 2.757 and 2.815 and 4.093 | BGLT3 expression ([4]; HUDEP-2): promoted BGLT3 expression | BGLT3 expression ([4]; Left panel, Parental HUDEP-2 cells treated with hydroxyurea, Parental DMSO = 1, 3 replicates): 2.685 and 2.462 and 3.265 | BGLT3 expression ([4]; Right panel, Parental HUDEP-2 cells treated with hydroxyurea, DMSO of the same cells = 1, 3 replicates): 2.685 and 2.462 and 3.265

Nc1ncnc2c1ncn2[C@@H]1O[C@H](CSCC[C@H](N)C(=O)O)[C@@H](O)[C@H]1O [SAH, S-(5'-Adenosyl)-L-homocysteine, reference compound]
pIC50 [5]: 6.96 | pIC50 ([6]; SETD2, 1 μM SAM): 5.28 | pIC50 ([6]; SETD2, RK-701 in duplicate): 5.27

Cc1c(C(=O)N[C@H](CCC2CC2)C(=O)Nc2ccc(C#N)cc2)[nH]c2c1C(=O)CC(C)(C)C2 [RK-0133114]
pIC50 ([7]; G9a): 5.43 | Inhibition % ([7]; G9a activity, 0.0032 μM, single experiment): 9.4545% and 6.383% and 0% | Inhibition % [7, 16]: 4.31% and 2.981% and 0% | Inhibition % [7, 17]: 0% and 8.43% | Inhibition % [7, 18]: 32.9012% and 25.4405% | inhibition at 2 µM [7, 18]: 42.7% | Inhibition % [7, 19]: 77.5611% and 74.8715% | inhibition at 10 µM [7, 19]: 74.3% | Inhibition % [7, 20]: 96.0953% and 94.6907% | inhibition at 50 µM [7, 20]: 97.9% | pIC50 [7, 21]: 5.52 and 5.44 and 5.35

Cc1c(C(=O)NC(CCC2CC2)C(=O)Nc2ccc(C#N)cc2)[nH]c2c1C(=O)CC(C)(C)C2 (stereo not drawn) [RK-701]
pIC50 [5]: < 4.00 | induction of γ-globin in BGLT3-knockdown cell lines [1]: almost completely abolished | pIC50 ([7]; G9a): 7.57 to 7.64 and 7.57 | Inhibition % ([7]; G9a activity, 0.00064 μM, single experiment): 6.475% and 0% | Inhibition % [7, 16]: 30.3347% and 30.0776% | inhibition at 0.016 µM [7, 16]: 35.6% | Inhibition % [7, 17]: 81.1273% and 81.8822% | inhibition at 0.08 µM [7, 17]: 82.3% | Inhibition % [7, 22]: 98.9416% and 99.213% | inhibition at 0.4 µM [7, 22]: 99.3% | Inhibition % [7, 18]: 99.979% and 99.9697% | inhibition at 2 µM [7, 18]: 100% | pIC50 [7, 21]: 7.61 and 7.54 and 7.55 | BCL11A expression in HUDEP-2 cells [2, 23]: 0.7709 and 1.287 and 1.333 | ZBTB7A expression in HUDEP-2 cells [2, 23]: 0.7642 and 1.54 and 1.588 | expression of BCL11A and ZBTB7A [2]: did not significantly affect | γ-globin mRNA level ([3]; HUDEP-2): upregulated | β-globin expression in HUDEP-2 cells treated with RK-701 and decitabine [3, 24]: 1.116 and 1.192 and 1.151 | γ-globin expression in HUDEP-2 cells treated with RK-701 and decitabine [3, 24]: 2.225 and 1.925 and 1.787 | pIC50 ([6]; SETD2, 1 μM SAM): < 4.00 | pIC50 ([6]; SETD2, RK-701 in duplicate): < 4.00 | BGLT3 expression ([4]; HUDEP-2): induced BGLT3 expression | BGLT3 expression ([4]; parental HUDEP-2 cells treated with RK-701, parental DMSO = 1, replicates 1a-3b): 3.454 and 1.802 and 1.321 and 3.995 and 3.605 and 4.281 | BGLT3 expression in HUDEP-2 cells treated with RK-701 and decitabine [4, 24]: 2.098 and 1.983 and 1.578
